Measured values from patent US6136814A (priority 1997, dated 2000).
Values joined by “and” are separate entries in the source; they are usually repeats but may differ in a detail not shown here. Equal values may be shown once.

How the values were obtained:
[1] = compatibility with container and seal materials, pH on storage (Example 3); format: physicochemical; details: polypropylene vials, RT and 40° C., three months
Method: At various time intervals, the samples were tested for pH. The pH was measured using a calibrated standard pH meter.

[2] = pH stability of aqueous acyclovir sodium under accelerated CO2 permeation conditions (Example 2); format: physicochemical; details: after 3 weeks
Text: The solution was transferred, under a nitrogen atmosphere, to autoclaved filling equipment contained within a laminar air-flow hood to avoid particle and microbiological contamination. […] The filtered bulk solution and containers were purged with nitrogen during the filling process to avoid CO2 absorption. The process was repeated for polyethylene terephthalate vials and Daikyo Resin CZ vials (sold by Daikyo Gomu Seiko, Ltd, reported in some references as polymethylpentene).
The samples were tested under accelerated CO2 storage conditions. The samples were placed in three different chambers with elevated CO2 atmospheres, maintained at a concentration of approximately 2%, 5%, and 10% CO2 by volume, for 3 weeks. The pH was measured at various times using a calibrated standard pH meter.

[3] = aqueous solubility; format: physicochemical; details: water, determined experimentally
[4] = measured pH drop over 21 months under normal atmospheric conditions (Example 9); format: physicochemical
Method: For each vial, one half was stored in the upright position and the other half was stored in the inverted position. The pH was measured over time using a standard calibrated pH meter.

[5] = calculated pH over time, 20 mL vial, normal atmospheric storage (Example 8)
Method: (§1) The atmospheric CO2 content, measured using a Dickson, Model CO2 X carbon dioxide recorder, was measured as 0.07% by volume and this value was used in the calculation.

[6] = effect of CO2 on pH of aqueous acyclovir solution under accelerated conditions (Example 6); format: physicochemical
Method: The desiccators were evacuated and filled with the CO2 standards three consecutive times at the beginning of the experiment, and the filling process was repeated each week and each time the desiccators were opened for removing samples. The pressure in the desiccators was maintained at 1 atm. The pH was measured at various time intervals.

[7] = pH at which precipitation or haziness is observed; format: physicochemical
Text: As indicated earlier, the pH of aqueous acyclovir sodium must be maintained above the pHp to avoid the formation of precipitates.

[8] = calculated pH over time, 10 mL vial, normal atmospheric storage (Example 7)
Method: as §1

[9] = cited from earlier work
[10] = depending on the desired concentration; cited from earlier work
[11] = effect of CO2 on pH of unbuffered aqueous sodium hydroxide in polypropylene vials (Example 1); format: physicochemical
Text: This example represents the effect of CO2 on the pH of an unbuffered aqueous sodium hydroxide solution. […] The solution was placed in a series of identical polypropylene vials which were sealed and separated into two groups (Groups A and B). The vials were identical in every relevant parameter, including average wall thickness, surface area, and stoppers. The sodium hydroxide solution in all samples were taken from the same lot and each vial was filled under identical filling conditions. Samples in group A were stored under normal atmospheric conditions. Samples in group B were placed in a 5.8 L desiccator along with a beaker containing 50 mL of 1N aq. HCl (0.05 moles HCl). After carefully adding 100 mL of 0.5M NaHCO3 (0.05 moles NaHCO3) to the HCl solution, the desiccator was immediately sealed to prevent escape of the resulting CO2 (approximately 0.05 moles CO2). The calculated concentration of CO2 in the chamber was approximately 18% by volume. The samples were allowed to stand for 3 weeks under the aforesaid conditions. The pH of the samples in the containers was measured using a calibrated standard pH meter.

Structure (SMILES): Nc1nc2c(ncn2COCCO)c(=O)[nH]1 [acyclovir sodium]
- precipitation upon visual inspection [1]: no precipitation was observed
- impurities by HPLC ([1]; Teflon coated stoppers): no significant impurities were generated
- precipitate ([2]; 2%, 5% and 10% CO2): no precipitate was observed
- pH decline ([2]; 5% CO2): 0.33 pH units
- pH decline ([2]; 10% CO2): 0.48 pH units
- solubility [3]: 644 mg/mL
- precipitates ([4]; after 21 months): no precipitates were detected
- acceptable for parenteral administration ([4]; normal atmospheric conditions, upright or inverted): at least 21 months
- shelf life ([4]; real time, normal atmospheric conditions): at least 21 months
- shelf life [5]: greater than 24 months
- initial pH in the absence of CO2 ([6]; 54.9 mg/mL, with purging headspace): 11.3
- Measured pH ([6]; 2.00% CO2, 10 mL vials, 14 days): 11.10
- Measured pH ([6]; 2.00% CO2, 10 mL vials, 16 days): 11.08
- Measured pH ([6]; 2.00% CO2, 10 mL vials, 20 days): 11.03
- Measured pH ([6]; 2.00% CO2, 10 mL vials, 23 days): 11.03
- Measured pH ([6]; 2.00% CO2, 10 mL vials, 27 days): 11.01
- Measured pH ([6]; 2.00% CO2, 20 mL vials, 14 days): 11.12
- Measured pH ([6]; 2.00% CO2, 20 mL vials, 16 days): 11.10
- Measured pH ([6]; 2.00% CO2, 20 mL vials, 20 days): 11.07
- Measured pH ([6]; 2.00% CO2, 20 mL vials, 23 days): 11.05
- Measured pH ([6]; 2.00% CO2, 20 mL vials, 27 days): 11.02
- Measured pH ([6]; 10.1% CO2, 10 mL vials, 6 days): 10.94
- Measured pH ([6]; 10.1% CO2, 10 mL vials, 9 days): 10.87
- Measured pH ([6]; 10.1% CO2, 10 mL vials, 14 days): 10.70
- Measured pH ([6]; 10.1% CO2, 20 mL vials, 6 days): 10.97
- Measured pH ([6]; 10.1% CO2, 20 mL vials, 9 days): 10.90
- Measured pH ([6]; 10.1% CO2, 20 mL vials, 14 days): 10.74
- pH at which precipitation becomes apparent ([7]; 54.9 mg/mL aqueous solution, actual observations): < 10.8
- pH below which haziness is observed ([7]; about 55 mg/mL acyclovir sodium): < 10.8
- shelf life [8]: greater than 24 months

Structure (SMILES): Nc1nc2c(ncn2COCCO)c(=O)[nH]1 [acyclovir, 2-amino-1,9-dihydro-9-[(2-hydroxy-ethoxy)methyl]-6H-purin-6-one]
- water solubility, neutral form ([9]; undissociated acyclovir, in words): virtually insoluble in water
- aqueous solubility, neutral form ([9]; water, ambient temperature, Pharm. Res., vol. 8, p. 1087 (1991)): 6.2 mM and ~6.2 mM
- pH required to maintain an aqueous solution [10]: 10-11

Structure (SMILES): [Na+].[OH-] [sodium hydroxide]
- pH ([11]; Group A normal atmosphere, 1 week): 11.22
- pH ([11]; Group A normal atmosphere, 3 weeks): 11.21
- pH ([11]; Group A normal atmosphere, initial): 11.31
- pH ([11]; Group B CO2 chamber (approx. 18% CO2 by vol.), 3 weeks): 6.37
- pH ([11]; Group B CO2 chamber (approx. 18% CO2 by vol.), initial): 11.31
